Assay results: ChEMBL document CHEMBL4138146, “A Schmidt rearrangement-mediated synthesis of novel tetrahydro-benzo[1,4]diazepin-5-ones as potential anticancer and antiprotozoal agents” (Eur J Med Chem, 2017)

Legend:
Type in all cases: functional
M14 [1] = assay: Growth inhibition of human M14 cells assessed as cell growth at 10^-5 M incubated for 48 hrs by sulforhodamine B assay relative to control; settings: M14, 48 h, read-out: Activity
EKVX [2] = assay: Growth inhibition of human EKVX cells assessed as cell growth at 10^-8 M incubated for 48 hrs by sulforhodamine B assay relative to control; settings: read-out: Activity
CAKI-1 [3] = assay: Growth inhibition of human Caki1 cells assessed as cell growth at 10^-7 M incubated for 48 hrs by sulforhodamine B assay relative to control; settings: CAKI-1, 48 h, read-out: Activity
TK-10 [4] = assay: Growth inhibition of human TK10 cells assessed as cell growth at 10^-4 M incubated for 48 hrs by sulforhodamine B assay relative to control; settings: TK-10, 48 h, read-out: Activity
A549 [5] = assay: Growth inhibition of human A549/ATCC cells assessed as cell growth at 10^-4 M incubated for 48 hrs by sulforhodamine B assay relative to control; settings: A549, 48 h, read-out: Activity
KM12 [6] = assay: Growth inhibition of human KM12 cells assessed as cell growth at 10^-6 M incubated for 48 hrs by sulforhodamine B assay relative to control; settings: KM12, 48 h, read-out: Activity
OVCAR-5 = assay: Growth inhibition of human OVCAR5 cells assessed as cell growth at 10^-4 M incubated for 48 hrs by sulforhodamine B assay relative to control; settings: OVCAR-5, 48 h, read-out: Activity
M14 [7] = assay: Growth inhibition of human M14 cells assessed as cell growth at 10^-4 M incubated for 48 hrs by sulforhodamine B assay relative to control; settings: M14, 48 h, read-out: Activity
MOLT-4 = assay: Growth inhibition of human MOLT4 cells assessed as cell growth at 10^-8 M incubated for 48 hrs by sulforhodamine B assay relative to control; settings: MOLT-4, 48 h, read-out: Activity
A498 = assay: Growth inhibition of human A498 cells assessed as cell growth at 10^-5 M incubated for 48 hrs by sulforhodamine B assay relative to control; settings: A498, 48 h, read-out: Activity
HCC 2998 = assay: Growth inhibition of human HCC2998 cells assessed as cell growth at 10^-8 M incubated for 48 hrs by sulforhodamine B assay relative to control; settings: HCC 2998, 48 h, read-out: Activity
HCT-116 = assay: Growth inhibition of human HCT116 cells assessed as cell growth at 10^-7 M incubated for 48 hrs by sulforhodamine B assay relative to control; settings: HCT-116, 48 h, read-out: Activity
NCI-H322M = assay: Growth inhibition of human NCI-H322M cells assessed as cell growth at 10^-5 M incubated for 48 hrs by sulforhodamine B assay relative to control; settings: read-out: Activity
SK-MEL-2 = assay: Growth inhibition of human SK-MEL-2 cells assessed as cell growth at 10^-7 M incubated for 48 hrs by sulforhodamine B assay relative to control; settings: SK-MEL-2, 48 h, read-out: Activity
SK-OV-3 = assay: Growth inhibition of human SKOV3 cells assessed as cell growth at 10^-8 M incubated for 48 hrs by sulforhodamine B assay relative to control; settings: SK-OV-3, 48 h, read-out: Activity
SF-268 = assay: Growth inhibition of human SF268 cells assessed as cell growth at 10^-7 M incubated for 48 hrs by sulforhodamine B assay relative to control; settings: SF-268, 48 h, read-out: Activity
NCI-H23 = assay: Growth inhibition of human NCI-H23 cells assessed as cell growth at 10^-5 M incubated for 48 hrs by sulforhodamine B assay relative to control; settings: NCI-H23, 48 h, read-out: Activity
CAKI-1 [8] = assay: Growth inhibition of human Caki1 cells assessed as cell growth at 10^-8 M incubated for 48 hrs by sulforhodamine B assay relative to control; settings: CAKI-1, 48 h, read-out: Activity
CAKI-1 [9] = assay: Growth inhibition of human Caki1 cells assessed as cell growth at 10^-6 M incubated for 48 hrs by sulforhodamine B assay relative to control; settings: CAKI-1, 48 h, read-out: Activity
A549 [10] = assay: Growth inhibition of human A549/ATCC cells assessed as cell growth at 10^-8 M incubated for 48 hrs by sulforhodamine B assay relative to control; settings: A549, 48 h, read-out: Activity
U-251 = assay: Growth inhibition of human U251 cells assessed as cell growth at 10^-7 M incubated for 48 hrs by sulforhodamine B assay relative to control; settings: U-251, 48 h, read-out: Activity
786-0 = assay: Growth inhibition of human 786-0 cells assessed as cell growth at 10^-6 M incubated for 48 hrs by sulforhodamine B assay relative to control; settings: 786-0, 48 h, read-out: Activity
SW-620 = assay: Growth inhibition of human SW620 cells assessed as cell growth at 10^-7 M incubated for 48 hrs by sulforhodamine B assay relative to control; settings: SW-620, 48 h, read-out: Activity
TK-10 [11] = assay: Growth inhibition of human TK10 cells assessed as cell growth at 10^-5 M incubated for 48 hrs by sulforhodamine B assay relative to control; settings: TK-10, 48 h, read-out: Activity
DU-145 = assay: Growth inhibition of human DU145 cells assessed as cell growth at 10^-5 M incubated for 48 hrs by sulforhodamine B assay relative to control; settings: DU-145, 48 h, read-out: Activity
HOP-62 = assay: Growth inhibition of human HOP62 cells assessed as cell growth at 10^-6 M incubated for 48 hrs by sulforhodamine B assay relative to control; settings: HOP-62, 48 h, read-out: Activity
COLO 205 [12] = assay: Growth inhibition of human COLO205 cells assessed as cell growth at 10^-4 M incubated for 48 hrs by sulforhodamine B assay relative to control; settings: COLO 205, 48 h, read-out: Activity
HL-60(TB) = assay: Growth inhibition of human HL-60(TB) cells assessed as cell growth at 10^-7 M incubated for 48 hrs by sulforhodamine B assay relative to control; settings: HL-60, 48 h, read-out: Activity
COLO 205 [13] = assay: Growth inhibition of human COLO205 cells assessed as cell growth at 10^-8 M incubated for 48 hrs by sulforhodamine B assay relative to control; settings: COLO 205, 48 h, read-out: Activity
KM12 [14] = assay: Growth inhibition of human KM12 cells assessed as cell growth at 10^-8 M incubated for 48 hrs by sulforhodamine B assay relative to control; settings: KM12, 48 h, read-out: Activity
EKVX [15] = assay: Growth inhibition of human EKVX cells assessed as cell growth at 10^-7 M incubated for 48 hrs by sulforhodamine B assay relative to control; settings: read-out: Activity
BT-549 = assay: Growth inhibition of human BT549 cells assessed as cell growth at 10^-4 M incubated for 48 hrs by sulforhodamine B assay relative to control; settings: BT-549, 48 h, read-out: Activity
LOX IMVI = assay: Growth inhibition of human LOXIMVI cells assessed as cell growth at 10^-7 M incubated for 48 hrs by sulforhodamine B assay relative to control; settings: read-out: Activity
SNB-19 = assay: Growth inhibition of human SNB19 cells assessed as cell growth at 10^-8 M incubated for 48 hrs by sulforhodamine B assay relative to control; settings: SNB-19, 48 h, read-out: Activity
EKVX [16] = assay: Growth inhibition of human EKVX cells assessed as cell growth at 10^-4 M incubated for 48 hrs by sulforhodamine B assay relative to control; settings: read-out: Activity

## CCCCOc1nc2ccccc2cc1C1CNC(=O)c2ccccc2N1 (stereo not given)
M14 [1]
  growth at 10 µM: 4%
EKVX [2]
  growth at 0.01 µM: 90%
CAKI-1 [3]
  growth at 0.1 µM: 86%
TK-10 [4]
  growth at 100 µM: -62%
A549 [5]
  growth at 100 µM: -75%
KM12 [6]
  growth at 1 µM: 85%
OVCAR-5
  growth at 100 µM: -24%
M14 [7]
  growth at 100 µM: -52%
MOLT-4
  growth at 0.01 µM: 70%
A498
  growth at 10 µM: -21%
HCC 2998
  growth at 0.01 µM: 99%
HCT-116
  growth at 0.1 µM: 101%
NCI-H322M
  growth at 10 µM: 31%
SK-MEL-2
  growth at 0.1 µM: 99%
SK-OV-3
  growth at 0.01 µM: 88%
SF-268
  growth at 0.1 µM: 92%
NCI-H23
  growth at 10 µM: 33%
CAKI-1 [8]
  growth at 0.01 µM: 83%
CAKI-1 [9]
  growth at 1 µM: 70%
A549 [10]
  growth at 0.01 µM: 100%
U-251
  growth at 0.1 µM: 96%
786-0
  growth at 1 µM: 90%
SW-620
  growth at 0.1 µM: 96%
TK-10 [11]
  growth at 10 µM: 31%
DU-145
  growth at 10 µM: 5%
HOP-62
  growth at 1 µM: 78%
COLO 205 [12]
  growth at 100 µM: -62%
HL-60(TB)
  growth at 0.1 µM: 26%
COLO 205 [13]
  growth at 0.01 µM: 96%
KM12 [14]
  growth at 0.01 µM: 98%
EKVX [15]
  growth at 0.1 µM: 97%
BT-549
  growth at 100 µM: -25%
LOX IMVI
  growth at 0.1 µM: 93%
SNB-19
  growth at 0.01 µM: 96%
EKVX [16]
  growth at 100 µM: -3%
